Activity calls are given as the source filed them. The calls are words filed in the database; no cut-off is given here.

Data set [1] relates to Staphylococcus aureus. The data set can be described thus: microbe, parasite or virus in culture. Particulars: 4880/C, 24 h.
Description: Antibacterial activity against wild type Staphylococcus aureus 4880/C assessed as reduction in microbial growth incubated for 24 hrs by microdilution assay
Data set [2] has as its system Enterococcus faecalis. The data set can be described thus: Antibacterial activity against Enterococcus faecalis ATCC 29212 = CCM 4224 assessed as inhibition of bacterial growth incubated for 24 hrs by microdilution assay. In kind it is functional. (In general: In broth dilution the organism is exposed to a series of concentrations in liquid medium.)
Data set [3] concerns Staphylococcus aureus. The data set can be described thus: Antibacterial activity against wild type Staphylococcus aureus 4738/B assessed as reduction in microbial growth incubated for 24 hrs by microdilution assay. In kind it is functional.
The test system of data set [4] is Staphylococcus aureus. The data set can be described thus: Antibacterial activity against Staphylococcus aureus CCM 4223 persisters assessed as reduction in bacterial cell count at 1 to 10 times MIC incubated for 3 hrs by cell counting method. Format: functional, organism-based.
In data set [5] the test system is Cell membrane. The data set can be described thus: Induction of cell envelope damage in Staphylococcus aureus assessed as tubular structure at 8 mg/L measured after 8 hrs by scanning electron microscope analysis.
Data set [6] has as its system Escherichia coli. The data set can be described thus: Bactericidal activity against Escherichia coli CCM 3954 assessed as reduction in viable cell count measured after 24 hrs by Time kill assay. In kind it is functional, organism-based. Particulars: dose 2-8 mg/L, DDE = dose-dependent effect.
For data set [7], the system named is Staphylococcus epidermidis. The data set can be described thus: Antibacterial activity against Staphylococcus epidermidis CCM 7221 assessed as inhibition of bacterial growth incubated for 24 hrs by microdilution assay. In kind it is functional.
The subject of data set [8] is Escherichia coli. The data set can be described thus: Antibacterial activity against Escherichia coli CCM 3954 assessed as time to reduce microbial population at 2 mg/L measured by time-kill assay. In kind it is functional.
Data set [9] relates to Cell membrane. The data set can be described thus: Induction of cell envelope damage in Staphylococcus aureus assessed as loss of cell integrity at 8 mg/L measured after 8 hrs by scanning electron microscope analysis. Format: subcellular.
Data set [10] can be described thus: Toxicity in human cornea epidermis model assessed as tissue viability pretreated for 1 hr and measured after 42 hrs by MTT assay relative to control. In kind it is tissue-based. The following applies: read-out: Activity. For orientation: Formazan colour is commonly taken as a measure of viable cells.
For data set [11], the system named is Pseudomonas aeruginosa. The data set can be described thus: Antibacterial activity against Pseudomonas aeruginosa ATCC 27853 = CCM 3955 assessed as inhibition of bacterial growth incubated for 24 hrs by microdilution assay. Format: functional.
For data set [12], the system named is Escherichia coli. Briefly: Antibacterial activity against Escherichia coli ATCC 25922 = CCM 3954 assessed as inhibition of bacterial growth incubated for 24 hrs by microdilution assay. In kind it is functional.
In data set [13] the test system is Cell membrane. Briefly: Induction of cell envelope damage in Staphylococcus aureus assessed as membranous nanotubes extrude from dying/dead cells at 8 mg/L measured after 8 hrs by scanning electron microscope analysis.

`CCCCCCCCOP(=O)(CCN(CCCN)CCCN)OCCCCCCOP(=O)(CCN(CCCN)CCCN)OCCCCCCCC.Cl.Cl.Cl.Cl.Cl.Cl` (stereo not drawn): the MIC was found to be 0.5 µg/mL in data set [1]; 1 µg/mL in data set [2]; 0.5 µg/mL in data set [3]; 0.5 µg/mL in data set [7]; 2 µg/mL in [11]; 0.5 µg/mL in data set [12]. The outcome in data set [4], in data set [5], in data set [9] and in [13] was Active. Moreover, the Activity result in [6] is “Dde”. In addition, in data set [8], the Time turned out to be 12 h. Moreover, in [10], the viability at 42 h is more than 60%.

Source of the values: ChEMBL document CHEMBL5120927, “LEGO-Lipophosphonoxins: A Novel Approach in Designing Membrane Targeting Antimicrobials” (J Med Chem, 2022).
